Measurements as given in article PMC2865582 (Journal of medicinal chemistry, 2010).

Columns and labels:
[1] = biological target: T1, GIVA cPLA2 (Homo sapiens, UniProt P47712); experiment: Mixed micelle-based; format: biochemical; details: for inhibition at 0.091 mole fraction: read-out: GIVA cPLA2 % Inhibition; for times more potent for GVIA iPLA2 than for GIVA cPLA2: ratio of XI(50) values
T1 sequence (P47712 1-749): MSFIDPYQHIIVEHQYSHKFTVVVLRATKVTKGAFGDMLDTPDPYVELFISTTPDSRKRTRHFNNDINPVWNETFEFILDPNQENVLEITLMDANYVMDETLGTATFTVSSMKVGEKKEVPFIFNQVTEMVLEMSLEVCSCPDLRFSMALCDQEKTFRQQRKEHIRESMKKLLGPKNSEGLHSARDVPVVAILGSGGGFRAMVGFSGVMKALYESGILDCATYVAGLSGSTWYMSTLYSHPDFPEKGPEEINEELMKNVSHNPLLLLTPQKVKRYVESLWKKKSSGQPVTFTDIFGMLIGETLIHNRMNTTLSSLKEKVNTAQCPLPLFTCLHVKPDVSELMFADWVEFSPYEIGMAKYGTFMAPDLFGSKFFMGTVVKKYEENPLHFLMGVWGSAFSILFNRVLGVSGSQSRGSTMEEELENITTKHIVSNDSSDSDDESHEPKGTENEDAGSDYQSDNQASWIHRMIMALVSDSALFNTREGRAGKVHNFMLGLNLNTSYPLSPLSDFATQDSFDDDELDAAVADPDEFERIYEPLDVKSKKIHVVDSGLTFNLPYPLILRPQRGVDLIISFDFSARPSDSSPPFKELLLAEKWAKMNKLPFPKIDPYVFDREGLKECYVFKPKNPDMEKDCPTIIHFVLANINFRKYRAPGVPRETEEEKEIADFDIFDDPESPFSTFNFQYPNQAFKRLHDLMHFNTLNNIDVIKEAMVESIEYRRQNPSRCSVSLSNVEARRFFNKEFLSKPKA

[2] = biological target: T2, GV sPLA2 (Homo sapiens, UniProt P39877); experiment: Mixed micelle-based; format: biochemical; details: lower bound from % inhibition at 0.091 mole fraction
T2 sequence (P39877 21-138): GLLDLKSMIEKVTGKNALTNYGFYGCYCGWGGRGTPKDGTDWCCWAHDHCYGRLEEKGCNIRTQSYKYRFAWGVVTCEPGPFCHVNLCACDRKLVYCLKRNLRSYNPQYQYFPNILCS

[3] = system: experimental autoimmune encephalomyelitis; details: animal model of multiple sclerosis; cited from earlier work
[4] = biological target: T3, human GVIA iPLA2 (Homo sapiens, UniProt O60733); details: previous mixed micelle assay with DPPC substrate; cited from earlier work
T3 sequence (O60733 1-806): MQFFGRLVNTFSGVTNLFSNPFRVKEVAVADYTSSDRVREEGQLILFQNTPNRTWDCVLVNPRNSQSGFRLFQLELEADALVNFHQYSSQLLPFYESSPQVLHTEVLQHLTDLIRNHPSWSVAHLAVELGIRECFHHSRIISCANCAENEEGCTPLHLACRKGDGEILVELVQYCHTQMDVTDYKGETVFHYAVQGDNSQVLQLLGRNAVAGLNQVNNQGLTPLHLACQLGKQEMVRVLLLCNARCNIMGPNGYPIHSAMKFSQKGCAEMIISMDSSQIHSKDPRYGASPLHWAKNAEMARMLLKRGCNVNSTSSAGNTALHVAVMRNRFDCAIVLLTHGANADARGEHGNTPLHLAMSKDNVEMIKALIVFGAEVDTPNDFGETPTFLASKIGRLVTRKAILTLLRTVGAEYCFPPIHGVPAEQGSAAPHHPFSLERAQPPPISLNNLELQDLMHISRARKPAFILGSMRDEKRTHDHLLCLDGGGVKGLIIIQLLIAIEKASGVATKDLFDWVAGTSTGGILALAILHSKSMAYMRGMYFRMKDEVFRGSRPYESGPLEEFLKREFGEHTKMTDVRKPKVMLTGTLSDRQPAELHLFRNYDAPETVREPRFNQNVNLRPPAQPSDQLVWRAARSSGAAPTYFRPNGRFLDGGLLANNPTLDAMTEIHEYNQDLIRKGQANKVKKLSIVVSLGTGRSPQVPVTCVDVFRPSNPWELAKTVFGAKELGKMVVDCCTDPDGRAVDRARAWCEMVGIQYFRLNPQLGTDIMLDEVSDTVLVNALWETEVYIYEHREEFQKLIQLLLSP

O=C(CCCCCc1ccccc1)C(F)(F)C(F)(F)C(F)(F)F [6b, 1,1,1,2,2,3,3-Heptafluoro-9-phenylnonan-4-one]
inhibition at 0.091 mole fraction [1]: < 25%

O=C(CCCCc1ccc2ccccc2c1)C(F)(F)F [12g, 1,1,1-Trifluoro-6-(naphthalen-2-yl)hexan-2-one]
times more potent for GVIA iPLA2 than for GV sPLA2 [2]: > 455 times | GIVA cPLA2 XI(50) ([1]; mole fraction of inhibitor in total substrate interface giving 50% inhibition): 0.039 ± 0.001 mole fraction

1,1,1,2,2,3,3,5-octafluoro-7-phenyloctan-4-one [compound 25]
times more potent for GVIA iPLA2 than for GV sPLA2 [2]: > 180 times | times more potent for GVIA iPLA2 than for GIVA cPLA2 [1]: 76 times

O=C(CCCCc1ccccc1)C(F)(F)C(F)(F)F [compound 2, 1,1,1,2,2-pentafluoro-7-phenylheptan-3-one]
therapeutic effect in experimental autoimmune encephalomyelitis [3]: beneficial therapeutic effect | GVIA iPLA2 XI(50) determined previously [4]: 0.0073 mole fraction | inhibition at 0.091 mole fraction [1]: < 25%

O=C(CCCCc1ccc2ccccc2c1)C(F)(F)C(F)(F)C(F)(F)F [12i, 1,1,1,2,2,3,3-Heptafluoro-8-(naphthalen-2-yl)octan-4-one]
times more potent for GVIA iPLA2 than for GV sPLA2 [2]: at least 90 times | times more potent for GVIA iPLA2 than for GIVA cPLA2 [1]: at least 90 times
